Key:
Aβ1-42 monomers = biological target: T1, Aβ1-42 monomers (Homo sapiens, UniProt P05067); test: Surface Plasmon Resonance (SPR) binding to immobilized Aβ1-42 monomers
T1 construct: The native Aβ1-42 peptide was then obtained from the depsi peptide; made in house; host or cells: chemical peptide synthesis (depsi-peptide, then pH switch)
Protocol: (§1) For these studies we used the ProteOn XPR36 (Biorad) apparatus, which has six parallel flow channels that can be used to uniformly immobilize strips of six "ligands" on the sensor surface. Aβ1-42 "monomers" or fibrils were immobilized in two of these parallel-flow channels of a GLC sensor chip (Biorad) using amine-coupling chemistry. Briefly, after surface activation the peptide solutions (10 µM in acetate buffer pH 4.0) were injected for 5 min at a flow rate of […], and the remaining activated groups were blocked with ethanolamine, pH 8.0. Bovine serum albumin (BSA) was also immobilized in another parallel flow channel, as a reference protein. […] A fourth surface was prepared using the same immobilization procedure but without addition of the peptide ("empty", reference surface).
(§2) The fluidic system of Proteon XPR36 can automatically rotate 90° so that up to six different "analytes" (e.g. different liposomes prepations, or different concentrations of the same preparation) could be injected simultaneously over all the different immobilized molecules.
(§3) ProteOn analysis software (BioRad) was used for the fitting of sensorgrams, to obtain the association and dissociation rate constants of the binding (Kon and Koff) and the corresponding KD value. The simplest 1:1 interaction model (Langmuir model) is used at first.

Aβ1-42 fibrils = biological target: T2, Aβ1-42 fibrils (Homo sapiens, UniProt P05067); test: Surface Plasmon Resonance (SPR) binding to immobilized Aβ1-42 fibrils
T2 construct: made in house; host or cells: chemical peptide synthesis (depsi-peptide, pH switch, then acid incubation to fibrils)
Protocol: To prepare Aβ1-42 fibrils, the switched peptide solution was diluted with water to 100 µM, acidified to pH 2.0 with 1 M HCl, and left to incubate for 24 hrs at 37 °C [56].
as §1, §2, §3

Aβ aggregation = settings: reported in literature; cited from earlier work
[1] = additional, fibril-specific binding component, two-sites model
[2] = SPR, liposomes 18 at 300 nM exposed curcumin-derivative, plain liposomes at 1360 nM

T2 sequence (P05067 672-713 limits assumed): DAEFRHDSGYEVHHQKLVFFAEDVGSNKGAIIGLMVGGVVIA
T1 sequence (P05067 672-713 limits assumed): as above

`COc1cc(/C=C/c2cc(/C=C/c3ccc(O)c(OC)c3)n(CC(=O)NCc3cn(CCOCCOCCO)nn3)n2)ccc1O` [TREG, 2-(3,5-bis((E)-4-hydroxy-3-methoxystyryl)-1H-pyrazol-1-yl)-N-((1-(2-(2-(2-hydroxyethoxy)ethoxy)ethyl)-1H-1,2,3-triazol-4-yl)methyl)acetamide] showed a Kd (Aβ1-42 monomers; Aβ1-42 monomers, rough estimate from Kon and Koff after global fitting, one-site model) of 23 µM, a Kd (Aβ1-42 fibrils; [1]) of 7 µM and a koff (Aβ1-42 fibrils; [1]) of 0.001 s⁻¹. For the same compound, the kon (Aβ1-42 fibrils; [1]) was 163 M⁻¹ s⁻¹.

For `COc1cc(/C=C/C(=O)CC(=O)/C=C/c2ccc(O)c(OC)c2)ccc1O` [curcumin, Curcumin], the “inhibition of Aβ aggregation (in words)” value (Aβ aggregation) is given as “inhibits Aβ aggregation in the low µM range”.

For `Nc1c(/N=N/c2ccc(-c3ccc(/N=N/c4cc(S(=O)(=O)O)c5ccccc5c4N)cc3)cc2)cc(S(=O)(=O)O)c2ccccc12` [Congo-Red, reference compound], the “binding to Aβ1-42 monomers (in words)” value (Aβ1-42 monomers; [2]) was “only bound to Aβ fibrils but not "monomers"” and the “binding to Aβ1-42 fibrils (in words)” value (Aβ1-42 fibrils; [2]) was “only bound to Aβ fibrils”.
